PubChem BioAssay AID200 (DTP/NCI, 2004)
Where “and” joins values, the source holds several entries; their conditions need not be identical. Equal values may be shown once. Toxic doses and inconclusive results are not listed. Where a SMILES comes first, the peptide text is derived from it. [ ]: non-standard residue; d: D form. The star is where a group is joined. Cbz = O=C(OCc1ccccc1)*; Nva = CCC[CH](N)C(=O)O

Test system: B6C3F1 mice, B16 melanoma ip, median survival T/C
Assay: NCI In Vivo Anticancer Drug Screen. Data for tumor model B16 Melanoma (intraperitoneal) in B6C3F1 mice
Settings: endpoint: median survival time, higher = longer survival
Summary of the method: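 Values are T/C ratios: the measurement in treated animals divided by that in vehicle-treated controls, using survival or tumor size in mice carrying transplantable tumors.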

[1] = dose: 0.12 mg/kg/injection, schedule: Q01DX009 (ip), vehicle: saline
[2] = dose: 0.25 mg/kg/injection, schedule: Q01DX009 (ip), vehicle: saline
[3] = dose: 0.5 mg/kg/injection, schedule: Q01DX009 (ip), vehicle: saline
[4] = dose: 3.13 mg/kg/injection, schedule: Q01DX009 (ip), vehicle: saline with Tween-80
[5] = dose: 6.25 mg/kg/injection, schedule: Q01DX009 (ip), vehicle: saline with Tween-80
[6] = dose: 3.12 mg/kg/injection, schedule: Q01DX009 (ip), vehicle: Klucel (hydroxypropylcellulose) (HPC)
[7] = dose: 6.25 mg/kg/injection, schedule: Q01DX009 (ip), vehicle: Klucel (hydroxypropylcellulose) (HPC)
[8] = dose: 12.5 mg/kg/injection, schedule: Q01DX009 (ip), vehicle: Klucel (hydroxypropylcellulose) (HPC)
[9] = dose: 50.0 mg/kg/injection, schedule: Q01DX009 (ip), vehicle: Klucel (hydroxypropylcellulose) (HPC)
[10] = dose: 100.0 mg/kg/injection, schedule: Q01DX009 (ip), vehicle: Klucel (hydroxypropylcellulose) (HPC)
[11] = dose: 200.0 mg/kg/injection, schedule: Q01DX009 (ip), vehicle: Klucel (hydroxypropylcellulose) (HPC)
[12] = dose: 12.5 mg/kg/injection, schedule: Q01DX009 (ip), vehicle: saline
[13] = dose: 25.0 mg/kg/injection, schedule: Q01DX009 (ip), vehicle: saline
[14] = dose: 100.0 mg/kg/injection, schedule: Q01DX009 (ip), vehicle: saline
[15] = dose: 200.0 mg/kg/injection, schedule: Q01DX009 (ip), vehicle: saline
[16] = dose: 50.0 mg/kg/injection, schedule: Q01DX009 (ip), vehicle: saline

`CCC1=C[C@H]2CN(CCc3c([nH]c4ccccc34)[C@@](C(=O)OC)(c3cc4c(cc3OC)N(C)[C@H]3[C@@](O)(C(=O)NC)[C@H](OC(C)=O)[C@]5(CC)C=CCN6CC[C@]43[C@@H]65)C2)C1` was tested, and the T/C (dose: 0.03 mg/kg/injection, schedule: Q01DX009 (ip), vehicle: saline) was 117 % of control, the T/C (dose: 0.06 mg/kg/injection, schedule: Q01DX009 (ip), vehicle: saline) was 118 % of control and the T/C [1] was 170 % of control. For the same molecule, the T/C [2] was 182 % of control and the T/C [3] was 238 % of control.
`COc1ccc(C(=S)N2CCN(c3ccccc3)CC2)cc1` was tested, and the T/C [4] was 98 % of control, the T/C [5] was 91 % of control and the T/C (dose: 12.5 mg/kg/injection, schedule: Q01DX009 (ip), vehicle: saline with Tween-80) was 93 % of control. For the same molecule, the T/C (dose: 25.0 mg/kg/injection, schedule: Q01DX009 (ip), vehicle: saline with Tween-80) was 101 % of control.
`CC(=O)NC(C=O)OCC=O` (stereo not given) was tested, and the T/C (dose: 6.25 mg/kg/injection, schedule: Q01DX009 (ip), vehicle: water) was 112 % of control, the T/C (dose: 12.5 mg/kg/injection, schedule: Q01DX009 (ip), vehicle: water) was 111 % of control and 106 % of control and the T/C (dose: 25.0 mg/kg/injection, schedule: Q01DX009 (ip), vehicle: water) was 109 % of control and 105 % of control. For the same molecule, the T/C (dose: 50.0 mg/kg/injection, schedule: Q01DX009 (ip), vehicle: water) was 103 % of control and 106 % of control, the T/C (dose: 100.0 mg/kg/injection, schedule: Q01DX009 (ip), vehicle: water) was 111 % of control and 117 % of control and the T/C (dose: 200.0 mg/kg/injection, schedule: Q01DX009 (ip), vehicle: water) was 112 % of control.
With `N=C(N)c1ccc(/C=C/c2ccc(C(=N)N)cc2)cc1` the T/C (dose: 16.0 mg/kg/injection, schedule: Q01DX009 (ip), vehicle: Klucel (hydroxypropylcellulose) (HPC)) was 101 % of control, the T/C (dose: 32.0 mg/kg/injection, schedule: Q01DX009 (ip), vehicle: Klucel (hydroxypropylcellulose) (HPC)) was 116 % of control and the T/C (dose: 32.0 mg/kg/injection, schedule: Q01DX009 (ip), vehicle: saline with Tween-80) was 101 % of control. The T/C (dose: 64.0 mg/kg/injection, schedule: Q01DX009 (ip), vehicle: Klucel (hydroxypropylcellulose) (HPC)) was 97 % of control and the T/C (dose: 64.0 mg/kg/injection, schedule: Q01DX009 (ip), vehicle: saline with Tween-80) was 101 % of control.
In the case of `COc1ccc(Cl)[n+]([O-])n1`, the T/C [6] is reported as 93 % of control, the T/C [7] is reported as 88 % of control and the T/C [8] is reported as 94 % of control. For the same molecule, the T/C (dose: 25.0 mg/kg/injection, schedule: Q01DX009 (ip), vehicle: Klucel (hydroxypropylcellulose) (HPC)) was 99 % of control and the T/C [9] was 93 % of control.
In the case of `NCC(=O)NC(Cc1ccc(O)cc1)C(=O)NCC(=O)O` (stereo not given) (HELM PEPTIDE1{G.[O=C(C(Cc1ccc(O)cc1)N[*:1])[*:2]].G}$$$$V2.0), the T/C [9] is reported as 96 % of control, the T/C [10] is reported as 98 % of control and the T/C [11] is reported as 106 % of control.
With `COCCCNC1=C(C#N)C(=O)NC(c2cccc([N+](=O)[O-])c2)S1` (stereo not given) the T/C [4] was 112 % of control and 98 % of control, the T/C [5] was 91 % of control and 96 % of control and the T/C (dose: 50.0 mg/kg/injection, schedule: Q01DX009 (ip), vehicle: saline with Tween-80) was 94 % of control and 101 % of control (2×). The T/C (dose: 100.0 mg/kg/injection, schedule: Q01DX009 (ip), vehicle: saline with Tween-80) was 111 % of control and 98 % of control, the T/C (dose: 200.0 mg/kg/injection, schedule: Q01DX009 (ip), vehicle: saline with Tween-80) was 111 % of control and the T/C (dose: 400.0 mg/kg/injection, schedule: Q01DX009 (ip), vehicle: saline with Tween-80) was 87 % of control.
For `C1OC1CO[C@@H]1CO[C@H]2[C@@H]1OC[C@H]2OCC1CO1` (stereo not given in full), the T/C [12] was 111 % of control, the T/C (dose: 12.5 mg/kg/injection, schedule: Q01DX009 (ip), vehicle: suspension in saline) was 111 % of control and the T/C [13] was 115 % of control. For the same molecule, the T/C (dose: 25.0 mg/kg/injection, schedule: Q01DX009 (ip), vehicle: suspension in saline) was 111 % of control, the T/C [14] was 171 % of control and 182 % of control and the T/C (dose: 100.0 mg/kg/injection, schedule: Q01DX009 (ip), vehicle: suspension in saline) was 153 % of control. For the same molecule, the T/C [15] was 220 % of control and 235 % of control and the T/C (dose: 200.0 mg/kg/injection, schedule: Q01DX009 (ip), vehicle: suspension in saline) was 205 % of control.
For `CCCC(NC(=O)OCc1ccccc1)C(=O)NC(C(=O)O)C(C)CC` (stereo not given) (Cbz-[Nva]-Ile-OH; configuration not given here), the T/C [10] was 101 % of control and the T/C [11] was 109 % of control.
For `CCCCCCC/C=C/C(=O)OC1C(OC2C(OC(CCCCCCC)CC(=O)OC(CCCCCCC)CC(=O)O)OC(C)C(O)C2O)OC(C)C(O)C1O` (stereo not given), the T/C (dose: 0.78 mg/kg/injection, schedule: Q01DX009 (ip), vehicle: Klucel (hydroxypropylcellulose) (HPC)) was 103 % of control, the T/C (dose: 1.56 mg/kg/injection, schedule: Q01DX009 (ip), vehicle: Klucel (hydroxypropylcellulose) (HPC)) was 87 % of control and the T/C [6] was 94 % of control.
In the case of `Cc1ccccc1N(CC1CO1)CC1CO1` (stereo not given), the T/C [12] is reported as 113 % of control, the T/C [13] is reported as 105 % of control and the T/C [16] is reported as 100 % of control. The T/C [14] was 116 % of control and the T/C [15] was 124 % of control.
`CO[C@@]12[C@@H]3N[C@@H]3CN1C1=C(C(=O)C(NCc3ccco3)=C(C)C1=O)[C@@H]2COC(N)=O` was tested, and the T/C (dose: 4.5 mg/kg/injection, schedule: Q01DX001 (ip), vehicle: distilled water + Tween-80) was 170 % of control, the T/C (dose: 9.0 mg/kg/injection, schedule: Q01DX001 (ip), vehicle: distilled water + Tween-80) was 186 % of control and the T/C (dose: 18.0 mg/kg/injection, schedule: Q01DX001 (ip), vehicle: distilled water + Tween-80) was 219 % of control. The T/C (dose: 36.0 mg/kg/injection, schedule: Q01DX001 (ip), vehicle: distilled water + Tween-80) was 247 % of control.
`CC(Br)C(=O)NC(Cc1ccccc1)C(=O)O` (stereo not given) was tested, and the T/C [12] was 104 % of control, the T/C [13] was 95 % of control and the T/C [16] was 102 % of control.
For `COc1cccc2c1C(=O)c1c(O)c3c(c(O)c1C2=O)CC(O)(/C(C)=N/NC(=O)CCC(=O)N/N=C(\C)C1(O)Cc2c(O)c4c(c(O)c2C(OC2CC(N)C(O)C(C)O2)C1)C(=O)c1c(OC)cccc1C4=O)CC3OC1CC(N)C(O)C(C)O1` (stereo not given), the T/C (dose: 0.75 mg/kg/injection, schedule: Q01DX009 (ip), vehicle: water) was 171 % of control, the T/C (dose: 1.5 mg/kg/injection, schedule: Q01DX009 (ip), vehicle: water) was 171 % of control and 195 % of control and the T/C (dose: 3.0 mg/kg/injection, schedule: Q01DX009 (ip), vehicle: water) was 202 % of control and 242 % of control. The T/C (dose: 6.0 mg/kg/injection, schedule: Q01DX009 (ip), vehicle: water) was 250 % of control and 256 % of control and the T/C (dose: 12.0 mg/kg/injection, schedule: Q01DX009 (ip), vehicle: water) was 320 % of control.
With `CC(=O)/C=C\c1ccc(Cl)cc1` the T/C [12] was 107 % of control, the T/C [13] was 103 % of control and the T/C [16] was 103 % of control.
With `COCC12CCC(OC)C34C5CC6(O)C(OC)CC(OC(C)=O)(C5C6OC(=O)c5ccccc5)C(C(OC)C13)C4N(C)C2` (stereo not given) the T/C (dose: 15.0 micrograms/kg/injection, schedule: Q01DX009 (ip), vehicle: Klucel (hydroxypropylcellulose) (HPC)) was 92 % of control, the T/C (dose: 30.0 micrograms/kg/injection, schedule: Q01DX009 (ip), vehicle: Klucel (hydroxypropylcellulose) (HPC)) was 108 % of control and the T/C (dose: 60.0 micrograms/kg/injection, schedule: Q01DX009 (ip), vehicle: Klucel (hydroxypropylcellulose) (HPC)) was 96 % of control. The T/C (dose: 120.0 micrograms/kg/injection, schedule: Q01DX009 (ip), vehicle: Klucel (hydroxypropylcellulose) (HPC)) was 99 % of control.
With `COC(C(=O)C(O)C(C)O)C1Cc2cc3cc(OC4CC(OC(C)=O)C(OC5CC(O)C(OC)C(C)O5)C(C)O4)cc(O)c3c(O)c2C(=O)C1OC1CC(OC2CC(OC3CC(C)(O)C(OC(=O)C(C)C)C(C)O3)C(O)C(C)O2)C(O)C(C)O1` (stereo not given) the T/C (dose: 0.5 mg/kg/injection, schedule: Q01DX009 (ip), vehicle: saline with Tween-80) was 158 % of control and the T/C (dose: 1.0 mg/kg/injection, schedule: Q01DX009 (ip), vehicle: saline with Tween-80) was 170 % of control.
In the case of `CNC(=O)O/N=C(\CN=[N+]=[N-])C(C)(C)C`, the T/C [1] is reported as 104 % of control, the T/C [2] is reported as 99 % of control and the T/C [3] is reported as 118 % of control. The T/C (dose: 1.0 mg/kg/injection, schedule: Q01DX009 (ip), vehicle: saline) was 101 % of control.
In the case of `C[C@@H]1C[C@H]2[C@@H]3CCC4=CC(=O)C=C[C@]4(C)[C@@]3(F)[C@@H](O)C[C@]2(C)[C@@]1(O)C(=O)CO`, the T/C [6] is reported as 109 % of control, the T/C [7] is reported as 118 % of control and the T/C [8] is reported as 104 % of control.
